Assay results reported in patent EP3344255B1 (priority 2016, dated 2017).
Like-named read-outs stand apart in the source and are kept apart here.

What was measured:
Type in all cases: cell-based, Acinetobacter baumannii
[1] = system: colistin-susceptible A.baumannii strains; assay: Colistin gradient test (E-test) on Mueller Hinton Agar with and without methylene blue
From the text: (§1) Firstly, colistin-susceptible A.baumannii strains obtained from the same passage were subcultured on media (Mueller Hinton Agar) containing 14 mcg/ml methylene blue and without methylene blue and colistin gradient test (E-test) strips were placed on them.

[2] = system: A.baumannii bacteria with resistance to colistin
Description: as §1
Later, the same tests were performed on A.baumannii bacteria with resistance to colistin. […] These bacterial varieties with resistance to colistin were tested based on species with different levels of MIC (minimum inhibitory concentrations) for colistin.

[3] = system: colistin-susceptible A.baumannii strains; assay: Growth on Mueller Hinton Agar with and without methylene blue; details: 14 mcg/ml methylene blue in Mueller Hinton Agar
From the text: as §1

[4] = system: A.baumannii bacteria with resistance to colistin; assay: Colistin gradient test (E-test) on Mueller Hinton Agar with and without methylene blue
Description: as §1
Later, the same tests were performed on A.baumannii bacteria with resistance to colistin. While there was growth in the medium without methylene blue (Mueller Hinton Agar), there was no growth in the medium containing methylene blue. […] These bacterial varieties with resistance to colistin were tested based on species with different levels of MIC (minimum inhibitory concentrations) for colistin. […] In other words, it's understood these bacteria were inhibited. […] The probable cause of this reduction is that those with MIC values more than 0.5 mcg/ml in the bacterial population were selectively killed by methylene blue. […] However, the inhibition rate for strains with high MIC value (like 32 mcg/ml) was higher than the inhibition rate for strains with low MIC value (like 4-8 mcg/ml). In other words, the susceptiblity to methylene blue is proportional to the colistin resistance levels of colistin-resistant A.baumannii bacteria.
These effects of inhibition of colistin-resistant A.baumannii bacteria by methylene blue are clearly understood from the appearance on MHA (Mueller Hinton Agar) media. Image 1 and 2 provide the appearance of A.baumannii strains with homogeneous resistance to colistin on MHA (Mueller Hinton Agar) media. […] Images 3 and 4 provide images of heteroresistant A.baumannii strains with resistance to colistin on MHA.

Molecule	increase of susceptibility to colistin ([1]; effect of methylene blue, strains with colistin MIC values of 0.5 mcg/ml or less)	susceptibility of A.baumannii strain to colistin ([1]; medium containing 14 mcg/ml methylene blue, colistin susceptible strains)	growth inhibition ([2]; 14 mcg/ml methylene blue on MHA, heteroresistant strain, internal zone with colistin MIC 32 mcg/ml)	growth inhibition ([2]; 14 mcg/ml methylene blue on MHA, homogeneously resistant strain with colistin MIC 32 mcg/ml (Image 2))	growth ([2]; medium containing methylene blue (14 mcg/ml), colistin resistant bacteria, growth in medium without methylene blue)	growth inhibition ([2]; methylene blue medium, bacteria with high levels of colistin resistance (MIC value 32 mcg/ml))	growth inhibition ([2]; methylene blue medium, bacteria with low levels of colistin resistance (MIC value 1 or 3 mcg/ml))	inhibitory effect on bacterial subpopulations ([2]; methylene blue solution, all subpopulations with colistin MIC value above 0.5 mcg/ml)	growth inhibition [3]	regression of colistin MIC ([1]; medium containing methylene blue vs without, colistin susceptible strains) [µg/mL]	MIC ([4]; 14 mcg/ml methylene blue on MHA, heteroresistant strain, outer zone (MIC 2 mcg/ml before)) [µg/mL]	MIC ([4]; MHA without methylene blue, heteroresistant strain, internal zone (Image 3)) [µg/mL]	MIC ([4]; MHA without methylene blue, heteroresistant strain, outer zone (Image 3)) [µg/mL]	MIC ([4]; MHA without methylene blue, strain with homogeneous resistance to colistin (Image 1)) [µg/mL]	MIC (minimum inhibitory concentration) ([4]; with methylene blue, bacteria with low levels of colistin resistance (MIC 1 or 3 mcg/ml before)) [µg/mL]	MIC (minimum inhibitory concentration) ([4]; without methylene blue, bacteria with high levels of colistin resistance) [µg/mL]
CN(C)c1ccc2nc3ccc(=[N+](C)C)cc-3sc2c1 [methylene blue]	no increased susceptibility	slightly increased	totally inhibited	completely inhibited	no growth	completely stopped growth	did not completely stop growing	inhibitory effects	did not inhibit growth							
Colistin (polymyxin E)										~0.5	0.5	32	2	32	0.5	32
